Assay results as given in US20180078609A1, “METHODS AND COMPOSITIONS FOR TREATING ALZHEIMER'S DISEASE AND OTHER MEMORY-ASSOCIATED DISORDERS AND CONDITIONS” (Massachusetts Institute of Technology, priority 2016, published 2018).

Experiments:
DG engram cells [1] = assay: Dendritic spine density analysis of DG engram cells after in vivo optical LTP; design: species or system mouse; details: early AD mice treated with anisomycin after LTP induction
Method: Engram cells were labelled using c-Fos-tTA-driven synthesis of ChR2-eYFP or eYFP alone. The eYFP signal was amplified using immunohistochemistry procedures, after which fluorescence z-stacks were taken by confocal microscopy (Zeiss LSM700) using a×40 objective. Maximum intensity projections were generated using ZEN Black software (Zeiss). Four mice per experimental group were analyzed for dendritic spines. For each mouse, 30-40 dendritic fragments of 10-μm length were quantified (n=120-160 fragments per group). To measure spine density of DG engram cells with a focus on entorhinal cortical inputs, distal dendritic fragments in the middle-to-outer molecular layer (ML) were selected. For CA3 and CA1 engram cells, apical and basal dendritic fragments were selected. To compute spine density, the number of spines counted on each fragment was normalized by the cylindrical approximation of the surface of the specific fragment. Experiments were conducted blind to experimental group. Researcher 1 imaged dendritic fragments and randomized images, while researcher 2 performed manual spine counting.
(§1) One day after CFC training and engram labelling (DG plus PP terminals) in control and early AD groups, mice were placed in an open field arena (52×26 cm) after patch cords were fitted to the fiber implants. […]

early AD mice = assay: Contextual fear conditioning memory recall (freezing) after in vivo optical LTP; design: species or system mouse
Description: Two distinct contexts were employed [Ryan, T. J., et al. (2015) Science 348, 1007-1013]. Context A was 29×25×22 cm chambers with grid floors, opaque triangular ceilings, red lighting, and scented with 1% acetic acid. Four mice were run simultaneously in four identical context A chambers. Context B consisted of four 30×25×33 cm chambers with perspex floors, transparent square ceilings, bright white lighting, and scented with 0.25% benzaldehyde. All mice were conditioned in context A (two 0.60 mA shocks of 2 s duration in 5 min), and tested (3 min) in contexts A and B 1 day later. […] Floors of chambers were cleaned with quatricide before and between runs. Mice were transported to and from the experimental room in their home cages using a wheeled cart. The cart and cages remained in an anteroom to the experimental rooms during all behavioral experiments. For engram labeling, mice were kept on regular food without DOX for 24 h before training. When training was complete, mice were switched back to food containing 40 mg kg^−1 DOX.
as §1

DG = assay: Kainic acid seizure-induced ChR2-eYFP labelling; format: in vivo, mouse; details: 1 day off DOX; 15 mg kg−1 i.p. kainic acid
Method: For seizure experiments [Liu, X., et al. (2012) Nature 484, 381-385], mice were taken off DOX for 1 day and injected intraperitoneally with 15 mg kg^−1 kainic acid (KA). Mice were returned to DOX food 6 h after KA treatment and perfused the next day for immunohistochemistry procedures.
To characterize the expression pattern of ChR2-eYFP, DTR-eYFP, eYFP alone and oChIEF-tdTomato in control and AD mice, the number of eYFP^+/tdTomato^+ neurons were counted from 4-5 coronal slices per mouse (n=3-5 mice per group). Coronal slices centered on coordinates covered by optic fiber implants were taken for DG quantification and sagittal slices centered on injection coordinates were taken for MEC and LEC. Fluorescence images were acquired using a Zeiss Axiolmager.Z1/ApoTome microscope (×20). […] The number of eYFP^+/tdTomato^+ cells per section was calculated by applying a threshold above background fluorescence. Data were analyzed using Microsoft Excel with the Statplus plug-in. A similar approach was applied for quantifying amyloid-3 plaques, c-Fos^+ neurons and adult newborn (DCX^+) neurons. Total engram cell reactivation was calculated as ((c-Fos^+ eYFP^+)/(total DAPI^+))×100. Chance overlap was calculated as ((c-Fos^+/total DAPI^+)×(eYFP^+/total DAPI^+))×100. Percentage of adult newborn neurons expressing neuronal markers was calculated as ((NeuN^+ DCX^+)/(total DCX^+))×100. […]

DG engram cells [2] = assay: DTR-mediated ablation of engram cells, DTR-eYFP cell counts; format: in vivo, mouse; details: DTR-expressing DG engram cells after DT administration
Method: Mice were dispatched using 750-1,000 mg kg^−1 avertin and perfused transcardially with PBS, followed by 4% paraformaldehyde (PFA). Brains were extracted and incubated in 4% PFA at room temperature overnight. Brains were transferred to PBS and 50 μm coronal slices were prepared using a vibratome. For immunostaining [Ryan, T. J., et al. (2015) Science 348, 1007-1013], each slice was placed in PBS+0.2% Triton X-100 (PBS-T), with 5% normal goat serum for 1 h and then incubated with primary antibody at 4° C. for 24 h. Slices then underwent three wash steps for 10 min each in PBS-T, followed by 1 h incubation with secondary antibody. […]
To characterize the expression pattern of ChR2-eYFP, DTR-eYFP, eYFP alone and oChIEF-tdTomato in control and AD mice, the number of eYFP^+/tdTomato^+ neurons were counted from 4-5 coronal slices per mouse (n=3-5 mice per group). Coronal slices centered on coordinates covered by optic fiber implants were taken for DG quantification and sagittal slices centered on injection coordinates were taken for MEC and LEC. Fluorescence images were acquired using a Zeiss Axiolmager.Z1/ApoTome microscope (×20). […] The number of eYFP^+/tdTomato^+ cells per section was calculated by applying a threshold above background fluorescence. Data were analyzed using Microsoft Excel with the Statplus plug-in. […]

DG mossy cells = assay: Calretinin (CR+) staining of mossy cell axons after engram cell ablation; format: in vivo, mouse; details: after DT administration
Method: Mice were dispatched using 750-1,000 mg kg^−1 avertin and perfused transcardially with PBS, followed by 4% paraformaldehyde (PFA). Brains were extracted and incubated in 4% PFA at room temperature overnight. Brains were transferred to PBS and 50 μm coronal slices were prepared using a vibratome. For immunostaining [Ryan, T. J., et al. (2015) Science 348, 1007-1013], each slice was placed in PBS+0.2% Triton X-100 (PBS-T), with 5% normal goat serum for 1 h and then incubated with primary antibody at 4° C. for 24 h. Slices then underwent three wash steps for 10 min each in PBS-T, followed by 1 h incubation with secondary antibody. After three more wash steps of 10 min each in PBS-T, slices were mounted on microscope slides. All analyses were performed blind to the experimental conditions. Antibodies used for staining were as follows: to stain for ChR2-eYFP, DTR-eYFP or eYFP alone, slices were incubated with primary chicken anti-GFP (1:1,000, Life Technologies) and visualized using anti-chicken Alexa-488 (1:200). For plaques, slices were stained using primary mouse anti-β-amyloid (1:1,000; Sigma-Aldrich) and secondary anti-mouse Alexa-488 (1:500). c-Fos was stained with rabbit anti-c-Fos (1:500, Calbiochem) and anti-rabbit Alexa-568 (1:300). Adult newborn neurons were stained with guinea pig anti-DCX (1:1,000; Millipore) and anti-guinea-pig Alexa-555 (1:500). […]

## COc1ccc(C[C@H]2NC[C@H](O)[C@H]2OC(C)=O)cc1 [anisomycin]
DG engram cells [1]
  Average dendritic spine density vs saline-treated AD mice: decreased
Early AD mice; AD+100 Hz+Aniso, 2 days after LTP induction followed by drug administration, 75 mg kg−1 i.p. twice
  Memory recall freezing vs saline-treated AD mice: less freezing

## C=C(C)[C@H]1CN[C@H](C(=O)O)[C@H]1CC(=O)O [kainic acid]
DG
  ChR2-eYFP labelling after seizures: efficient labelling throughout the DG

## diphtheria toxin
DG engram cells [2]
  Ablation of DG engram cells: efficiently ablated DG engram cells
DG mossy cells
  Effect on nearby DG mossy cells: intact
Early AD mice; AD rescue+DTR+DT, after optical LTP spine restoration
  Memory recall freezing vs saline-treated mice: less freezing
